From ChEMBL document CHEMBL5696443 (Clin Cancer Res, 2016)
pIC50: −log10 of the molar value. Active and inactive are the calls of the source.

Assays:
Mus musculus = assay: In vivo inhibition of ALK signaling in SCID Beige mouse xenografted with ALK positive human KARPAS-299 cells assessed as reduction in phosphorylated ALK level at 10 to 50 mg/kg, po administered as single dose and measured at 6 to 24 hrs by immunoblot analysis; type: functional, organism-based; details: dose 10-50 mg/kg, time 6-24 hrs
[1] = molecular target: Calcium/calmodulin-dependent protein kinase type II subunit alpha (Homo sapiens) (UniProt Q9UQM7); assay: Inhibition of human CAMK2A at 1 uM using KKALRRQETVDAL as substrate in presence of [gamma33P]-ATP by HotSpot assay relative to control
[2] = molecular target: Ephrin type-A receptor 2 (Homo sapiens) (UniProt P29317); assay: Inhibition of human EPHA2 at 1 uM using poly (Glu, Tyr)4:1 as substrate in presence of [gamma33P]-ATP by HotSpot assay relative to control
[3] = molecular target: MAP kinase-activated protein kinase 5 (Homo sapiens) (UniProt Q8IW41); assay: Inhibition of human MAPKAPK5 at 1 uM using KKLNRTLSVA as substrate in presence of [gamma33P]-ATP by HotSpot assay relative to control
[4] = tested on: EML4-ALK (Homo sapiens), Q9UM73+Q9HC35 [L1198F]; details: BaF3, dose 500.0 nmol/L, time 3-5 weeks
[5] = molecular target: Fibroblast growth factor receptor 3 (Homo sapiens, UniProt P22607); assay: Inhibition of human FGFR3 using poly (Glu, Tyr)4:1 as substrate in presence of [gamma33P]-ATP by HotSpot assay
[6] = molecular target: Lymphokine-activated killer T-cell-originated protein kinase (Homo sapiens) (UniProt Q96KB5); assay: Inhibition of human PBK at 1 uM using MBP as substrate in presence of [gamma33P]-ATP by HotSpot assay relative to control
[7] = tested on: EML4-ALK (Homo sapiens), Q9UM73+Q9HC35 [S1206Y]; details: BaF3, dose 500.0 nmol/L, time 3-5 weeks
[8] = molecular target: Serine/threonine-protein kinase TAO1 (Homo sapiens, UniProt Q7L7X3); assay: Inhibition of human TAOK1 using MBP as substrate in presence of [gamma33P]-ATP by HotSpot assay
[9] = molecular target: Casein kinase I isoform alpha (Homo sapiens) (UniProt P48729); assay: Inhibition of human CSNK1A1 at 1 uM using KRRRAL[pS]VASLPGL as substrate in presence of [gamma33P]-ATP by HotSpot assay relative to control
[10] = molecular target: Serine/threonine-protein kinase WNK2 (Homo sapiens) (UniProt Q9Y3S1); assay: Inhibition of human WNK2 at 1 uM using MBP as substrate in presence of [gamma33P]-ATP by HotSpot assay relative to control
[11] = tested on: Platelet-derived growth factor receptor alpha (Homo sapiens), P16234 [D842V]; assay: Inhibition of human PDGFRalpha D842V mutant at 1 uM using poly (Glu, Tyr)4:1 as substrate in presence of [gamma33P]-ATP by HotSpot assay relative to control
[12] = molecular target: TGF-beta receptor type-2 (Homo sapiens) (UniProt P37173); assay: Inhibition of human TGFBR2 at 1 uM using MBP as substrate in presence of [gamma33P]-ATP by HotSpot assay relative to control
[13] = tested on: Protein cereblon/ALK tyrosine kinase receptor/Echinoderm microtubule-associated protein-like 4 (Homo sapiens), Q9UM73+Q9HC35+Q96SW2 [UNDEFINED MUTATION]; details: BaF3, time 72.0 hrs
Chain of Protein cereblon/ALK tyrosine kinase receptor/Echinoderm microtubule-associated protein-like 4 (Homo sapiens), Q9UM73+Q9HC35+Q96SW2 [UNDEFINED MUTATION] (Q96SW2 whole entry, looked up, change not shown): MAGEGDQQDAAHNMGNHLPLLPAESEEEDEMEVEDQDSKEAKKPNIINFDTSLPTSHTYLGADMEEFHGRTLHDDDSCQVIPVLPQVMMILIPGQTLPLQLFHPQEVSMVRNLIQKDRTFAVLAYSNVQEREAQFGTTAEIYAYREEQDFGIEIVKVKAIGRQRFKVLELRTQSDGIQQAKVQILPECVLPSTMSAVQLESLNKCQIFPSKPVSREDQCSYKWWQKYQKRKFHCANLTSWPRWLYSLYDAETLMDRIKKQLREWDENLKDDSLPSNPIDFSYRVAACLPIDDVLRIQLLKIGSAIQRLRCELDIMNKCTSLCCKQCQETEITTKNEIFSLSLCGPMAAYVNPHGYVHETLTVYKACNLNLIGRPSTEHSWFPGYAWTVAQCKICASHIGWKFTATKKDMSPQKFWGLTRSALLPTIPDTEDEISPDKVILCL
Chain of Protein cereblon/ALK tyrosine kinase receptor/Echinoderm microtubule-associated protein-like 4 (Homo sapiens), Q9UM73+Q9HC35+Q96SW2 [UNDEFINED MUTATION] (Q9HC35 whole entry, looked up, change not shown): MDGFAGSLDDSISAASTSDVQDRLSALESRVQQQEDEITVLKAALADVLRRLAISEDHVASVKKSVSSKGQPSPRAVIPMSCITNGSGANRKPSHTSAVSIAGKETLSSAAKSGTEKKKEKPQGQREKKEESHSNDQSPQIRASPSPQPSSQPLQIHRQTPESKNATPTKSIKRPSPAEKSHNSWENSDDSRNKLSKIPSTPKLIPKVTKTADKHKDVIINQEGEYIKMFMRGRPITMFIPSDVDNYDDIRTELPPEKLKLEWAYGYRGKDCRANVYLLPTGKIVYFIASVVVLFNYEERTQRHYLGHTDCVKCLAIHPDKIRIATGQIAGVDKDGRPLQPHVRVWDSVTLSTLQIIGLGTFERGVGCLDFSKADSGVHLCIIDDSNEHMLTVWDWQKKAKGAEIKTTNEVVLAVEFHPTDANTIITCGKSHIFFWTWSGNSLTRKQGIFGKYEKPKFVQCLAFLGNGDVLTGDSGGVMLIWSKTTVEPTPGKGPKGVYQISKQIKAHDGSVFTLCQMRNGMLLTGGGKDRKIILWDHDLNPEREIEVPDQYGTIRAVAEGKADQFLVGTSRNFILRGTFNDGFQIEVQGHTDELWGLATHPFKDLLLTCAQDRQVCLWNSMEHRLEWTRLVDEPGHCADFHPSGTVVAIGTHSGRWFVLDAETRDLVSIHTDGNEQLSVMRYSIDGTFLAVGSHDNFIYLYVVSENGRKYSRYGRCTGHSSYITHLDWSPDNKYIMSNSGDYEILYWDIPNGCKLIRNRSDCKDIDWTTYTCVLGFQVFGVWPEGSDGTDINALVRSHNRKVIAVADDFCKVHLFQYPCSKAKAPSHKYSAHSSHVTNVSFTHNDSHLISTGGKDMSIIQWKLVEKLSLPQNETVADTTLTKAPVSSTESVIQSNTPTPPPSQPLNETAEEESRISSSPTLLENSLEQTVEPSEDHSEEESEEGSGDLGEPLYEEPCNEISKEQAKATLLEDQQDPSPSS
Chain of Protein cereblon/ALK tyrosine kinase receptor/Echinoderm microtubule-associated protein-like 4 (Homo sapiens), Q9UM73+Q9HC35+Q96SW2 [UNDEFINED MUTATION] (Q9UM73 whole entry, looked up, change not shown): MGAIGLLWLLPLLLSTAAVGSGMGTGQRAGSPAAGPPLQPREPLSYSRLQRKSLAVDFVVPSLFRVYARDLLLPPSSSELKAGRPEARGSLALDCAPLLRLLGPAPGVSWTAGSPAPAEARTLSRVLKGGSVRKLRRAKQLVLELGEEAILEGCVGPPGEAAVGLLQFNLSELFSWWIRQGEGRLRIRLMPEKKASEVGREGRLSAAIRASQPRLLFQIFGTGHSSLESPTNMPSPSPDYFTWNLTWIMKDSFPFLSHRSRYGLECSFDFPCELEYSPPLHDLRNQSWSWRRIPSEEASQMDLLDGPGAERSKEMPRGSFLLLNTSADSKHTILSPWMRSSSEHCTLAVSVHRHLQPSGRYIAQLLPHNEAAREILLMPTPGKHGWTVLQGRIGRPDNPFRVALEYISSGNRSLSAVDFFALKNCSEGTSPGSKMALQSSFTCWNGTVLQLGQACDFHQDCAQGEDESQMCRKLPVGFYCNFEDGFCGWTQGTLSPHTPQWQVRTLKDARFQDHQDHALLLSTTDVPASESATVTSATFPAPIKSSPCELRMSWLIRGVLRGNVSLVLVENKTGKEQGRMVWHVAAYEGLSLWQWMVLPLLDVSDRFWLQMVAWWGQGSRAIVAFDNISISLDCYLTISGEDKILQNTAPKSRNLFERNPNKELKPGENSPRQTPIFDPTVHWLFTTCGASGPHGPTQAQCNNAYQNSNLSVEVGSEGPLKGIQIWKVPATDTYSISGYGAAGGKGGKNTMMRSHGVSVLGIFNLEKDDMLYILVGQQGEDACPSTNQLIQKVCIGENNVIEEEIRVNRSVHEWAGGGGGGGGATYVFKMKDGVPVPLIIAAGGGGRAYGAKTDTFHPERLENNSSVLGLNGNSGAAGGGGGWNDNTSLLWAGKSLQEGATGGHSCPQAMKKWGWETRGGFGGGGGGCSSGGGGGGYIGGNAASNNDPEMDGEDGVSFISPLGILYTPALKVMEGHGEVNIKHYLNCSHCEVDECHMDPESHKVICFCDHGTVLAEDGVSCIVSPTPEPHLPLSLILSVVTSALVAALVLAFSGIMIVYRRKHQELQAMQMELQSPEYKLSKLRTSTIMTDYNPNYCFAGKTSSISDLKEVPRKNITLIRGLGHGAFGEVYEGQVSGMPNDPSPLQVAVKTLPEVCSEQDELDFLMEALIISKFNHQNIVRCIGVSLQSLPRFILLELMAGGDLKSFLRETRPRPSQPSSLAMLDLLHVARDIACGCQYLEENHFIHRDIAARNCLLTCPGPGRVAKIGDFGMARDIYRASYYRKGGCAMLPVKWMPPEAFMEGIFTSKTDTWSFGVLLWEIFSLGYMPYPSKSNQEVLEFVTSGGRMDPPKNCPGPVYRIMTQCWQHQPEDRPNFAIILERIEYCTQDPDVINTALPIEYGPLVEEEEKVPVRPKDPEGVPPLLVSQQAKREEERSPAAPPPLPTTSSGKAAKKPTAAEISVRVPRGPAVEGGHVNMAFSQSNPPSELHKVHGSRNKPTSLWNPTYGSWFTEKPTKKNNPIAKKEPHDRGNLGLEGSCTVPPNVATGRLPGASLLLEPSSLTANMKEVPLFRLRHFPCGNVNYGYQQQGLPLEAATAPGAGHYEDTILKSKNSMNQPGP

[14] = molecular target: Serine/threonine-protein kinase PLK3 (Homo sapiens) (UniProt Q9H4B4); assay: Inhibition of human PLK3 at 1 uM using casein as substrate in presence of [gamma33P]-ATP by HotSpot assay relative to control
[15] = molecular target: Death-associated protein kinase 1 (Homo sapiens) (UniProt P53355); assay: Inhibition of human DAPK1 at 1 uM using KKLNRTLSFAEPG as substrate in presence of [gamma33P]-ATP by HotSpot assay relative to control
[16] = molecular target: Insulin-like growth factor 1 receptor (Homo sapiens, UniProt P08069); assay: Inhibition of human IGF1R using KKKSPGEYVNIEFG as substrate in presence of [gamma33P]-ATP by HotSpot assay
Chain of Insulin-like growth factor 1 receptor (P08069 31-736 limits assumed): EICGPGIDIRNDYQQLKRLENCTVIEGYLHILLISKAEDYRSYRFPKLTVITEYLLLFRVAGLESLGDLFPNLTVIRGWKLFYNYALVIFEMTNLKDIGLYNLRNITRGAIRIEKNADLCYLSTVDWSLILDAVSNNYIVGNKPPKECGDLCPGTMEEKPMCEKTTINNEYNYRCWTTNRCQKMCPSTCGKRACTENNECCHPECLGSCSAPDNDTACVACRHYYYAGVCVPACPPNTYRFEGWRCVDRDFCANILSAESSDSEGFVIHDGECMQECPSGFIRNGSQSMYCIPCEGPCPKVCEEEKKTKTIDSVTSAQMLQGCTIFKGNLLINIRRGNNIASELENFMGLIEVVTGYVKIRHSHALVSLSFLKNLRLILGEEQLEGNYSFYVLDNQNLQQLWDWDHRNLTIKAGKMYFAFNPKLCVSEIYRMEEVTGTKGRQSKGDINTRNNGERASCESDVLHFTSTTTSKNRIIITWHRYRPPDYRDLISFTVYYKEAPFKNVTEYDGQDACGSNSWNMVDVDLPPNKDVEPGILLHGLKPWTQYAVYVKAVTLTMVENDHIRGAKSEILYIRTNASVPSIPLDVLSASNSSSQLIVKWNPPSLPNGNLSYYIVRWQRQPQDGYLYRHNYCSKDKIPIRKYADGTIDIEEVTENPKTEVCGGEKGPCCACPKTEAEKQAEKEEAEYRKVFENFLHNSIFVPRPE
Chain of Insulin-like growth factor 1 receptor (P08069 741-1367 limits assumed): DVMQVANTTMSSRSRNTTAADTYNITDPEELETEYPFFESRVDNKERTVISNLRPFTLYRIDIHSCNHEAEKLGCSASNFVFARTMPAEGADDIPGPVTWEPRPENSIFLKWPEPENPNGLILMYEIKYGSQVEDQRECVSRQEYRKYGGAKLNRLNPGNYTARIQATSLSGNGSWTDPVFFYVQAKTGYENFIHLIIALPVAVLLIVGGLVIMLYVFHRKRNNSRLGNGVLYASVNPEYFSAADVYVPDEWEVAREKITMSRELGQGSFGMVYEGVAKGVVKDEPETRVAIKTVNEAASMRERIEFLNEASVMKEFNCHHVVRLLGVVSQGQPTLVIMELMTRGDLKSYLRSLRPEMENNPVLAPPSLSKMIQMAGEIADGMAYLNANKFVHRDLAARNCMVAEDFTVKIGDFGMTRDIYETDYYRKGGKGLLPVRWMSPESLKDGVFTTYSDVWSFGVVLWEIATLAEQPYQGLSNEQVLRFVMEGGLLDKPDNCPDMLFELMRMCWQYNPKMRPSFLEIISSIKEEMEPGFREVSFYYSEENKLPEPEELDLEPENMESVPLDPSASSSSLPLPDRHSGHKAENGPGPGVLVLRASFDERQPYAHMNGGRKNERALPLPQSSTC

[17] = tested on: EML4-ALK (Homo sapiens), Q9UM73+Q9HC35 [C1156Y]; details: BaF3, time 3-5 weeks
[18] = molecular target: Platelet-derived growth factor receptor beta (Homo sapiens) (UniProt P09619); assay: Inhibition of human PDGFRbeta at 1 uM using poly (Glu, Tyr)4:1 as substrate in presence of [gamma33P]-ATP by HotSpot assay relative to control
[19] = molecular target: Serine/threonine-protein kinase Nek11 (Homo sapiens) (UniProt Q8NG66); assay: Inhibition of human NEK11 at 1 uM using MBP as substrate in presence of [gamma33P]-ATP by HotSpot assay relative to control
[20] = molecular target: Cyclin-dependent kinase 5/CDK5 activator 1 (Homo sapiens) (UniProt Q00535+Q15078); assay: Inhibition of human CDK5/p25 at 1 uM using RB protein as substrate in presence of [gamma33P]-ATP by HotSpot assay relative to control; type: protein-complex assay
Chain of Cyclin-dependent kinase 5/CDK5 activator 1 (Homo sapiens) (Q00535 whole entry): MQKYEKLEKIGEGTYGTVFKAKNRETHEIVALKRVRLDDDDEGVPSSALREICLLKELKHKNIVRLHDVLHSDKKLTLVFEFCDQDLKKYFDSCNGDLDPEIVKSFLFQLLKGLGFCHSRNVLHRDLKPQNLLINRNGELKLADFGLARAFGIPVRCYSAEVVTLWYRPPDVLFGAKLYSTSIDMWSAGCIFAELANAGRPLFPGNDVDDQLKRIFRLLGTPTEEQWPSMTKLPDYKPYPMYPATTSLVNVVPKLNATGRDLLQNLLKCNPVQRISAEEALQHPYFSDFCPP
Chain of Cyclin-dependent kinase 5/CDK5 activator 1 (Homo sapiens) (Q15078 99-307 partner limits assumed): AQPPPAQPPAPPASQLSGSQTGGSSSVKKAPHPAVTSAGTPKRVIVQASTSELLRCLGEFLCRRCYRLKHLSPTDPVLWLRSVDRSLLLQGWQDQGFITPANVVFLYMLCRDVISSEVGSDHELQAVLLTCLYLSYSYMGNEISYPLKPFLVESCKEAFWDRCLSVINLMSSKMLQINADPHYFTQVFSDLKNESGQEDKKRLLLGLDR

[21] = tested on: EML4-ALK (Homo sapiens), Q9UM73+Q9HC35 [L1152R]; details: BaF3, time 3-5 weeks
[22] = molecular target: Dual specificity protein kinase CLK4 (Homo sapiens) (UniProt Q9HAZ1); assay: Inhibition of human CLK4 at 1 uM using MBP as substrate in presence of [gamma33P]-ATP by HotSpot assay relative to control
[23] = molecular target: Hepatocyte growth factor receptor (Homo sapiens, UniProt P08581); assay: Inhibition of human MET using poly (Glu, Tyr)4:1 as substrate in presence of [gamma33P]-ATP by HotSpot assay
[24] = molecular target: Tyrosine-protein kinase Mer (Homo sapiens, UniProt Q12866); assay: Inhibition of human MERTK using poly (Glu, Tyr)4:1 as substrate in presence of [gamma33P]-ATP by HotSpot assay
[25] = molecular target: SRSF protein kinase 3 (Homo sapiens) (UniProt Q9UPE1); assay: Inhibition of human SRPK3 at 1 uM using GRSRSRSRSR as substrate in presence of [gamma33P]-ATP by HotSpot assay relative to control
[26] = molecular target: Serine/threonine-protein kinase PAK 4 (Homo sapiens) (UniProt O96013); assay: Inhibition of human PAK4 at 1 uM using RRRLSFAEPG as substrate in presence of [gamma33P]-ATP by HotSpot assay relative to control
[27] = molecular target: Mitogen-activated protein kinase 13 (Homo sapiens) (UniProt O15264); assay: Inhibition of human MAPK13 at 1 uM using MBP as substrate in presence of [gamma33P]-ATP by HotSpot assay relative to control

COc1cc(N2CCC(N3CCN(C)CC3)CC2)ccc1Nc1ncc(Cl)c(Nc2ccccc2P(C)(C)=O)n1 [BRIGATINIB]
34 nM: IC90 [21]
< 6.00: pIC50 [23] | pIC50 [24]
6.45: pIC50 [5]
38 nM: IC90 [13]
6.31: pIC50 [8]
129 nM: IC90 [17]
active: Activity (Mus musculus) | inhibition [4] | inhibition [7]
< 90%: inhibition [1] | inhibition [2] | inhibition [3] | inhibition [6] | inhibition [9] | inhibition [10] | inhibition [11] | inhibition [12] | inhibition [14] | inhibition [15] | inhibition [18] | inhibition [19] | inhibition [20] | inhibition [22] | inhibition [25] | inhibition [26] | inhibition [27]
7.14: pIC50 [16]
